Source: ChEMBL document CHEMBL3988442, “University of Dundee, Small-Polar-MMV Screening Library” (2021)

Tested on: Plasmodium falciparum
Test: Calibr Malaria Delayed Death Assay SOP
Format: functional, organism-based
Conditions: for IC50: Plasmodium falciparum

SMILES	pIC50	IC50
CC(O)c1cccc(Nc2nc(NCCO)c3ccccc3n2)c1 (configuration not stated)	6.601	220 nM
Oc1ccc(Cl)cc1CNCc1ccccc1Cl	6.1	616 nM
Oc1ccc(Cl)cc1CNCc1ccccc1C(F)(F)F	6.047	1080 nM
Cc1ccccc1CNCc1cc(Cl)ccc1O	6.395	601 nM
COc1cccc(CNCc2ccccc2Cl)c1O	6.206	677 nM
COc1cccc(CNCc2cccc(Cl)c2)c1O	6.064	914 nM
COc1cccc(CNCc2ccc(F)cc2Cl)c1O	6.118	712 nM
COc1cccc(CNCc2ccc(F)c(Cl)c2)c1O	6.294	500 nM
Cc1cccc(NC(=O)c2cccc(OCc3nnnn3C)c2)n1	6.563	278 nM
CN1CCC2(Cc3ccccc3CN(C(=O)Cc3cccc(Cl)c3)C2)C1 (configuration not stated)	6.082	836 nM
CN1CCC(N(Cc2ccco2)S(=O)(=O)c2ccc(Cl)cc2)CC1	6.409	560 nM
O=C(NC1CCN(CC2CC2)C1)N1CCC(OC2CCCCC2)CC1 (configuration not stated)	6.591	332 nM
O=C(NC1CCN(CC2CCCC2)C1)N1CCC(OCC2CC2)CC1 (configuration not stated)	5.978	966 nM
Cn1ccnc1CNC1CCCOc2c1ccc1ccccc21 (configuration not stated)	5.947	1200 nM
Cc1ccc(CN(c2cc(C)nc3nc(C(F)(F)F)nn23)C2CC2)cc1	6.41	282 nM
Fc1cccc(C(NCc2ncc[nH]2)c2ccccn2)c1 (configuration not stated)	6.434	351 nM
Clc1cccc(C(NCc2ncc[nH]2)c2ccccn2)c1 (configuration not stated)	6.581	225 nM
CCC(CNC(=O)CNC(C)=O)Oc1cccc(F)c1 (configuration not stated)	5.937	1020 nM

SMILES	pIC50	IC50
CN(C)c1ccccc1CN1CCCCC1CNS(C)(=O)=O (configuration not stated)	6.043	1080 nM
CCN(C)CC1CCN(S(=O)(=O)c2cc(C)c(F)cc2Cl)C1 (configuration not stated)	5.917	986 nM
O=C(Nc1nccs1)C1CCCN1Cc1ccccn1 (configuration not stated)	6.607	229 nM
CCNc1ccnc(CN2CCCC2C(=O)Nc2nccs2)c1 (configuration not stated)	6.462	367 nM
CCN1CCC(CNCc2cc(C)ccc2OC)C1 (configuration not stated)	6.037	1150 nM
CNS(=O)(=O)c1cccc(C(C)NCc2ccccc2OC)c1 (configuration not stated)	6.041	1090 nM
Cc1ccc(S(=O)(=O)N2CCC(N3CCCCC3)CC2)cc1C	5.751	2130 nM
CCN1CCN(c2ccc(F)cc2C(C)NCc2ccccn2)CC1 (configuration not stated)	6.099	651 nM
CCN1CCN(c2ccc(F)cc2C(C)NCc2cscn2)CC1 (configuration not stated)	5.999	907 nM
Cc1cc(Cl)ccc1S(=O)(=O)NCC(C)N1CCN(C)CC1 (configuration not stated)	6.144	444 nM
O=C(C(CNCc1ccsc1)c1ccccc1)N1CCOCC1 (configuration not stated)	6.002	1450 nM
NCC(c1ccccc1)N1CCc2sccc2C1 (configuration not stated)	6.206	699 nM
CO[C@@H]1CCN(Cc2ccoc2)C[C@@H]1Cc1ccccc1.O=C(O)C(F)(F)F	5.938	1080 nM
CC(C)N(C)Cc1cnc2n1CCN(C(=O)NC1CCCC1)C2.O=C(O)C(F)(F)F	6.607	275 nM
Fc1cnc(N2CCCC3(CCN(Cc4ccoc4)C3)C2)nc1.O=C(O)C(F)(F)F.O=C(O)C(F)(F)F (configuration not stated)	5.93	1210 nM
Fc1cnc(N2CCCC3(CCN(Cc4ccsc4)C3)C2)nc1.O=C(O)C(F)(F)F.O=C(O)C(F)(F)F (configuration not stated)	6.217	664 nM
Cc1cc(C)cc(CN2C[C@H]3COC[C@H](N4CCN(C)CC4)[C@H]3C2)c1.O=C(O)C(F)(F)F.O=C(O)C(F)(F)F.O=C(O)C(F)(F)F	6.958	197 nM
CC1(C)CN(C(CNC2=NCCN2)c2ccc(Cl)cc2)CCO1.I (configuration not stated)	6.344	478 nM
